Source: patent US20250281610A1, “P2RY2 ACTIVITY MODULATORS” (Deutsches Krebsforschungszentrum Stiftung des öffentlichen …, priority 2022, published 2025)

What was measured:
BxPC3 cells = assay: Viability of BxPC3 cells in co-culture with MART-1-specific TCR-T cells (CellTiter-Blue); format: cell-based, human; settings: single agent: 5 μM AR-C, 10 μg/ml atezolizumab or 10 μg/ml durvalumab, 6-24 hours (FIG. 11)
Source text: FIG. 11. […] Untreated cells served as the control.
MART-1 specific T cells were generated as described (Mezzadra et al., Nature 549, 106-110 (2017); Jorritsma et al., Blood 110 (10): 3564-3572. (2007)). To generate CD33-specific chimeric antigen receptor (CAR) T cells, a CD33Hul95-CD28Z CAR (described in WO 2019/178382) cassette was cloned into a retroviral vector, and the resulting virus was used to transduce T cells as described (Mezzadra et al., Nature 549, 106-110 (2017); Jorritsma et al., Blood 110 (10): 3564-3572. (2007)).
MART1-specific CD8+ T cells and MART1 epitope-expressing cancer cells were mixed at a ratio of 1:16 to 1:4. Next, cells were centrifugated at 1,600 g for 3 min and incubated at 37° C. and 5% CO2 for 12-72 hours. T cell activation was assessed by surface staining with anti-CD137-BV421 (4-1BB, Biolegend), anti-CD69-APC/Fire™ 750 (FN50, Biolegend), anti-CD25-AF700 (BC96, Biolegend) antibodies and intracellular staining with anti-IL-2-PE/Cy7 (MQ1-17H12, Biolegend), anti-IFN-7-BV421 (4S.B3, Biolegend), anti-TNF-α-BV785 (MAb11, Biolegend) antibodies, followed by flow cytometry analysis. For intracellular staining, brefeldin A (Biolegend) was added to the cell culture medium 4 h before cells were harvested. The viability of cancer cells that grow in suspension including THP-1 cells was assessed by flow cytometry-based absolute cell counting using AccuCount beads (Spherotech). For adherent cancer cells including BxPC3 and MCF7, the cell viability was quantified using CellTiter-Blue Cell Viability Assay (Promega).

SW480 cells = assay: Viability of SW480 cells in co-culture with CEA-specific CAR-T cells (CellTiter-Blue); format: cell-based, human; settings: 10 μM AR-C, 48 hours (FIG. 20)
Protocol: FIG. 20. Effects of P2RY2 agonist and P2RY2 antagonist on cancer cell viability in T cell-cancer cell co-cultures. T cells transduced with a CEA-specific CAR (CAR-T) were co-cultured with genetically edited SW480 cells for 48 hours in the absence or presence of 40 μM ATP, 20 μM ATPγS, 10 μM Diquafosol, 5 μM Denufosol and 10 μM AR-C 118925XX (AR-C). Control cells: SW480 cells transduced with non-targeting sgRNA and Cas9 (gNT); P2RY2 deficient cells: SW480 cells transduced with P2RY2-targeting sgRNA and Cas9 (gP2RY2-3, gP2RY2-4); B7-H3 (CD276) deficient cells: SW480 cells transduced with B7-H3-targeting sgRNA and Cas9 (gCD276-1); P2RY2 and B7-H3 double deficient cells: SW480 cells transduced with P2RY2-targeting sgRNA, B7-H3-targeting sgRNA, and Cas9 (gCD276-1 gP2RY2-3 DKO, gCD276-1 gP2RY2-4 DKO); P2RY2 overexpression cells: SW480 cells transduced with the open reading frame of P2RY2 (P2RY2-OE); B7-H3 overexpression cells: SW480 cells transduced with the open reading frame of CD276 (CD276-OE). […] Normalized cell viability of the SW480 cells was determined by the CellTiter-Blue® Cell Viability (Promega) assay after co-culture with CEA CAR-T cells. The end-point cell viability was normalized to SW480 cells, as measured using the CellTiter-Blue® Cell Viability (Promega) assay, in cultures without T cells. […]

Compound: Cc1ccc2c(c1)C=Cc1cc(C)ccc1C2c1cn(Cc2ccc(C(=O)Nc3nn[nH]n3)o2)c(=O)[nH]c1=S [AR-C 118925XX]
- viability of BxPC3 cells (BxPC3 cells): reduced
- tumor cell viability (SW480 cells): reduced
